Source: patent publication EP0412508A1, “Analogues of vasopressin, their preparation and pharmaceutical use” (CESKOSLOVENSKA AKADEMIE VED, priority 1989, dated 1991)

Legend:
[1] = test system: despinalisierten Rattenmännchen; test: pressor activity on despinalised male rats according to Krejci et al.; type: in vivo, Ratten; conditions: agonistic activity
From the text: (§1) Die biologische Wirksamkeit wurde an Ratten bestimmt: Die uterotonische (agonistische oder inhibitorische) Wirksamkeit wurde nach Holton (Holton, J. Brit. J. Pharmacol. 3, 328, 1948) in der Bearbeitung nach Munich (Endocrinology 66, 451, 1960) bestimmt; die inhibitorische Aktivität wurde ausgedrückt als pA2 (Eggen et al., J. Gen. Physiol. 56, 250, 1970), die pressorische Wirksamkeit wurde an despinalisierten Rattenmännchen nach Krejci et al., (Brit. J. Pharm. Chemother. 30, 497, 1967) bestimmt, die antidiuretische nach Burn (Burn et al., Biol. Stand., Oxford Univ. Press London 1950). Als Standard wurde für den antidiuretischen Test das [1-Desamino,8-D-Arginin]-Vasopressin (dDAVP) verwendet. Eine Übersicht der biologischen Wirksamkeiten ist der Tabelle 1 zu entnehmen.

Ratten [2] = test: uterotonic (agonistic or inhibitory) activity according to Holton, modified by Munsick (printed 'Munich'); conditions: inhibitory activity expressed as pA2, rat
From the text: as §1

Ratten [3] = test: antidiuretic activity according to Burn, standard dDAVP; type: in vivo; conditions: rat; relative to standard [1-Desamino,8-D-Arginin]-Vasopressin (dDAVP)
From the text: as §1

With “[2-p-Methyl-phenylalanin,8-D-Homoarginin]-Vasopressin” the “Pressorische Wirksamkeit” value [1] was 0,04 IU/mg, the “Uterotonische Wirksamkeit, pA₂” value (Ratten [2]) was “pA₂ = 6,85” and the “Antidiuretische Wirksamkeit (% dDAVP)” value (Ratten [3]) was < 0,1 % dDAVP.
